# Test system: Ethanol Red™
# Experiment: Addition of acetate to ethanol fermentations (SSF of corn mash)
# Details: for % change over no added acetate: glycerol
# Method: The yeast strain tested in this experiment was Ethanol […] ). […] After a total of 30 minutes, the flasks were removed from the water bath. Total yeast concentration was determined using the YC-100 in duplicate. LactrolTM (PhibroChem) was added to each mash to a final concentration of 24 ppm. […] Approximately 5 grams of each of the resulting mashes was transferred to test tubes having a 1/64 hole drilled in the top to allow CO2 release. […] Yeast was dosed at 5×10e6 cells/g mash. Milli-Q water was added to each tube so that a total volume of liquid added (enzyme+MQ water+acid) to each tube would be equally proportionate to the mash weight. Fermentations took place in a 32° C. water bath for 54 hours. Samples were vortexed periodically (in the morning and in the evening) throughout the fermentation. […] Fermentation sampling took place after 48 and 54 hours of fermentation by sacrificing 3 tubes per treatment. […] All samples were processed without further dilution. Samples were stored at 4° C. prior to and during HPLC analysis. Samples were analyzed for sugars (DP4+, DP3, DP2, glucose, and fructose), organic acids (lactic and acetic), glycerol, and ethanol.
smiles,measurement,setting,value
"CC(=O)O [Acetate, acetic acid]",Glycerol levels with added acetate,,reduced
same,48 Hour ETOH (w/v %),"Added Acetate 5 mM, 48 hours",13.55 w/v %
same,48 Hour Glycerol (w/v %),"Added Acetate 5 mM, 48 hours",1.636 w/v %
same,% Boost over no added acetate,"Added Acetate 5 mM, 48 hours",0.28%
same,54 Hour ETOH (w/v %),"Added Acetate 5 mM, 54 hours",13.71 w/v %
same,54 Hour Glycerol (w/v %),"Added Acetate 5 mM, 54 hours",1.625 w/v %
same,% Boost over no added acetate,"Added Acetate 5 mM, 54 hours",0.97%
same,48 Hour ETOH (w/v %),"Added Acetate 10 mM, 48 hours",13.66 w/v %
same,48 Hour Glycerol (w/v %),"Added Acetate 10 mM, 48 hours",1.553 w/v %
same,% Boost over no added acetate,"Added Acetate 10 mM, 48 hours",1.07%
same,54 Hour ETOH (w/v %),"Added Acetate 10 mM, 54 hours",13.73 w/v %
same,54 Hour Glycerol (w/v %),"Added Acetate 10 mM, 54 hours",1.569 w/v %
same,% Boost over no added acetate,"Added Acetate 10 mM, 54 hours",1.10%
same,48 Hour ETOH (w/v %),"Added Acetate 20 mM, 48 hours",13.77 w/v %
same,48 Hour Glycerol (w/v %),"Added Acetate 20 mM, 48 hours",1.462 w/v %
same,% Boost over no added acetate,"Added Acetate 20 mM, 48 hours",1.88%
same,54 Hour ETOH (w/v %),"Added Acetate 20 mM, 54 hours",13.83 w/v %
same,54 Hour Glycerol (w/v %),"Added Acetate 20 mM, 54 hours",1.45 w/v %
same,% Boost over no added acetate,"Added Acetate 20 mM, 54 hours",1.90%
same,48 Hour ETOH (w/v %),"Added Acetate 40 mM, 48 hours",13.82 w/v %
same,48 Hour Glycerol (w/v %),"Added Acetate 40 mM, 48 hours",1.365 w/v %
same,% Boost over no added acetate,"Added Acetate 40 mM, 48 hours",2.29%
same,54 Hour ETOH (w/v %),"Added Acetate 40 mM, 54 hours",13.83 w/v %
same,54 Hour Glycerol (w/v %),"Added Acetate 40 mM, 54 hours",1.365 w/v %
same,% Boost over no added acetate,"Added Acetate 40 mM, 54 hours",1.84%
same,48 Hour ETOH (w/v %),"Added Acetate 60 mM, 48 hours",13.88 w/v %
same,48 Hour Glycerol (w/v %),"Added Acetate 60 mM, 48 hours",1.332 w/v %
same,% Boost over no added acetate,"Added Acetate 60 mM, 48 hours",2.71%
same,54 Hour ETOH (w/v %),"Added Acetate 60 mM, 54 hours",13.83 w/v %
same,54 Hour Glycerol (w/v %),"Added Acetate 60 mM, 54 hours",1.323 w/v %
same,% Boost over no added acetate,"Added Acetate 60 mM, 54 hours",1.84%
same,48 Hour ETOH (w/v %),"Added Acetate 120 mM, 48 hours",12.92 w/v %
same,48 Hour Glycerol (w/v %),"Added Acetate 120 mM, 48 hours",1.337 w/v %
same,% Boost over no added acetate,"Added Acetate 120 mM, 48 hours",−4.41%
same,54 Hour ETOH (w/v %),"Added Acetate 120 mM, 54 hours",12.94 w/v %
same,54 Hour Glycerol (w/v %),"Added Acetate 120 mM, 54 hours",1.34 w/v %
same,% Boost over no added acetate,"Added Acetate 120 mM, 54 hours",−4.68%
same,% change over no added acetate,"Added Acetate 5 mM, 48 hours",−4.68%
same,% change over no added acetate,"Added Acetate 5 mM, 54 hours",−3.86%
same,% change over no added acetate,"Added Acetate 10 mM, 48 hours",−9.53%
same,% change over no added acetate,"Added Acetate 10 mM, 54 hours",−7.18%
same,% change over no added acetate,"Added Acetate 20 mM, 48 hours",−14.85%
same,% change over no added acetate,"Added Acetate 20 mM, 54 hours",−14.21%
same,% change over no added acetate,"Added Acetate 40 mM, 48 hours",−20.48%
same,% change over no added acetate,"Added Acetate 40 mM, 54 hours",−19.21%
same,% change over no added acetate,"Added Acetate 60 mM, 48 hours",−22.40%
same,% change over no added acetate,"Added Acetate 60 mM, 54 hours",−21.70%
same,% change over no added acetate,"Added Acetate 120 mM, 48 hours",−22.09%
same,% change over no added acetate,"Added Acetate 120 mM, 54 hours",−20.68%
